# Experimental data as given in patent US20040029823A1, “Antisense oligonucleotide compositions and methods for the modulation of JNK proteins” (priority 1997, published 2004).
# Several values for one entry are separate records, joined by “and”; a condition that tells them apart may be missing. Equal entries are not always repeated. Where two headings read alike, the source gives them in different places. Where a SMILES comes first, the peptide text is derived from it. The star is where a group is joined. e = 2'-O-(2-methoxyethyl) (MOE); [5mC] = 5-methylcytosine; Cbz = O=C(OCc1ccccc1)*; d = 2'-deoxy (DNA); CH2F = FC*
# Columns and labels:
# [1] = system: JNK1 mRNA; assay: Northern assay of JNK1 mRNA expression in A549 cells; type: cell-based, human; details: for Normalized % Control / RNA % Control / RNA % Inhibition: JNK1 mRNA; for Normalized % Control: chemically modified oligonucleotides; for RNA % Control / RNA % Inhibition: 300 nM for 20 hours then 200 nM for 4 hours
# Description: (§1) In order to evaluate the activity of potential JNK-modulating oligonucleotides, human lung carcinoma cell line A549 (American Type Culture Collection, Rockville, Md. No. ATCC CCL-185) cells or other cell lines as indicated in the Examples, were grown and treated with oligonucleotides or control solutions as detailed below. After harvesting, cellular extracts were prepared and examined for specific JNK mRNA levels or JNK protein levels (i.e., Northern or Western assays, respectively). In all cases, “% expression” refers to the amount of JNK-specific signal in an oligonucleotide-treated cell relative to an untreated cell (or a cell treated with a control solution that lacks oligonucleotide), and “% inhibition” is calculated as
# 100%−% Expression =% Inhibition.
# Northern Assays: The mRNA expression of each JNK protein was determined by using a nucleic acid probe specifically hybridizable thereto. Nucleic acid probes specific for JNK1, JNK2 and JNK3 are described in Examples 3, 4 and 5, respectively. The probes were radiolabelled by means well known in the art (see, e.g., Short Protocols in Molecular Biology, 2nd Ed., Ausubel et al., Eds., John Wiley & Sons, New York, 1992, pages 3-11 to 2-3-44 and 4-17 to 4-18; Ruth, Chapter 6 In: Methods in Molecular Biology, Vol. 26: Protocols for Oligonucleotide Conjugates, Agrawal, ed., Humana Press Inc., Totowa, N.J., 1994, pages 167-185; and Chapter 10 In: Molecular Cloning: A Laboratory Manual, 2nd Ed., Sambrook et al., Eds., pages 10.1-10.70). The blots were stripped and reprobed with a ^32P-labeled glyceraldehyde 3-phosphate dehydrogenase (G3PDH) probe (Clontech Laboratories, Inc., Palo Alto, Calif.) in order to confirm equal loading of RNA and to allow the levels of JNK transcripts to be normalized with regard to the G3PDH signals.
# A549 cells were grown in T-75 flasks until 80-90% confluent. At this time, the cells were washed twice with 10 mL of media (DMEM), followed by the addition of 5 mL of DMEM containing 20 μg/mL of LIPOFECTIN™ (i.e., 1:1 (w/w) DOTMA/DOPE, Life Technologies, Gaithersburg, Md.; DOTMA=N-[1-(2,3-dioleyoxy)propyl]-N,N,N-trimethylammonium chloride; DOPE=dioleoyl phosphatidylethanolamine). The oligonucleotides were added from a 10 μM stock solution to a final concentration of 400 nM, and the two solutions were mixed by swirling the flasks. As a control, cells were treated with LIPOFECTIN™ without oligonucleotide under the same conditions and for the same times as the oligonucleotide-treated samples. After 4 hours at 37° C., the medium was replaced with fresh DMEM containing 10% serum. The cells were allowed to recover for 18 hours. Total cellular RNA was then extracted in guanidinium, subject to gel electrophoresis and transferred to a filter according to techniques known in the art (see, e.g., Chapter 7 In: Molecular Cloning: A Laboratory Manual, 2nd Ed., Sambrook et al., Eds., pages 7.1-7.87, and Short Protocols in Molecular Biology, 2nd Ed., Ausubel et al., Eds., John Wiley & Sons, New York, 1992, pages 2-24 to 2-30 and 4-14 to 4-29). Filters were typically hybridized overnight to a probe specific for the particular JNK gene of interest in hybridization buffer (25 mM KPO4, pH 7.4; 5×SSC; 5× Denhardt's solution, 100 μg/ml Salmon sperm DNA and 50% formamide) (Alahari et al., Nucl. Acids Res., 1993, 21, 4079). This was followed by two washes with 1×SSC, 0.1% SDS and two washes with 0.25×SSC, 0.1% SDS. Hybridizing bands were visualized by exposure to X-OMAT AR film and quantitated using a PHOSPHORIMAGER™ essentially according to the manufacturer's instructions (Molecular Dynamics, Sunnyvale, Calif.)
# B. JNK1-specific probes: In initial screenings of a set of oligonucleotides derived from the JNK1 sequence (Table 2) for biological activity, a cDNA clone of JNK1 (Derijard et al., Cell, 1994, 76, 1025) was radiolabeled and used as a JNK1-specific probe in Northern blots. […]
# [2] = system: JNK1 protein; assay: Western assay of JNK1 protein levels in A549 cells; type: cell-based, human; details: 300 nM for 20 hours then 200 nM for 4 hours
# Description: as §1
# Western Assays: A549 cells were grown and treated with oligonucleotides as described above. Cells were lysed, and protein extracts were electrophoresed (SDS-PAGE) and transferred to nitrocellulose filters by means known in the art (see, e.g., Chapter 18 In: Molecular Cloning: A Laboratory Manual, 2nd Ed., Sambrook et al., Eds., pages 18.34, 18.47-18.54 and 18.60-18.75)). The amount of each JNK protein was determined by using a primary antibody that specifically recognizes the appropriate JNK protein. The primary antibodies specific for each JNK protein are described in the appropriate Examples. The primary antibodies were detected by means well known in the art (see, e.g., Short Protocols in Molecular Biology, 2nd Ed., Ausubel et al., Eds., John Wiley & Sons, New York, 1992, pages 10-33 to 10-35; and Chapter 18 In: Molecular Cloning: A Laboratory Manual, 2nd Ed., Sambrook et al., Eds., pages 18.1-18.75 and 18.86-18.88) and quantitated using a PHOSPHORIMAGER™ essentially according to the manufacturer's instructions (Molecular Dynamics, Sunnyvale, Calif.).
# F. Western Assays: In order to assess the effect of oligonucleotides targeted to JNK1 mRNAs on JNK1 protein levels, Western assays were performed essentially as described above in Example 2, with the following exception(s) and/or modification(s). A primary antibody that specifically binds to JNK1 (catalog No. sc-474-G) was purchased from Santa Cruz Biotechnology, Inc. (Santa Cruz, Calif.; other JNK1-specific antibodies are available from StressGen Biotechnologies, Inc., Victoria, BC, Canada; and Research Diagnostics, Inc., Flanders, N.J.). In this experiment, cells were grown and treated with oligonucleotide at 300 nM for the initial 20 hours and then at 200 nM for 4 hours. At t=48 h, aliquots were removed for Northern and Western analyses, and fresh media was added to the cells. Aliquots for analysis were also taken at t=72 h. The samples from t=48 h and t=72 h were analyzed using the Northern and Western assays described above.
# [3] = system: MDA-MB-231 tumors; assay: MDA-MB-231 human breast adenocarcinoma tumors in nude mice; type: in vivo; details: MDA-MB-231 tumors, 25 mg/kg intravenous once daily
# Text: Approximately 5×10^6 breast adenocarcinoma cells (cell line MDA-MB-231; American Type Culture Collection, Richmond, Va., No. ATCC HTB-26) were implanted subcutaneously in the right inner thigh of nude mice (n=6 for each of three sets of mice). Oligonucleotides ISIS 15346 (JNK1, SEQ ID NO: 16) and 15353 (JNK2, SEQ ID NO: 31) were suspended in saline and administered once daily to two sets of mice on the first day the tumor volume was about […]. A saline-only (0.9% NaCl) solution was given to a third set of animals as a control. Oligonucleotides were given by intravenous injection at a dosage of 25 mg/kg. Tumor size was measured and tumor volume was calculated on days 12, 19, 26 and 33 following tumor cell inoculation.
# [4] = system: HUVEC; assay: Apoptosis in HUVEC (percent hypodiploid cells, flow cytometry); type: cell-based, human; details: for effect on JNK2 oligonucleotide-induced cell death (apoptosis): HUVEC treated with JNK2 oligonucleotide plus the inhibitor
molecule,measurement,setting,value
"15346 (antisense CTCTCTGTAGGCCCGCTTGG; sugars from the 5' end e5 d9 e6, [5mC] at 1, 3, 5, 16, all phosphorothioate, methylation of C not given here) [compound 15346]",Normalized % Control,[1]; dose 100 nM,22.6%
same,Normalized % Control,[1]; dose 400 nM,11.0%
same,RNA % Control,[1]; t = 48 h,4.3%
same,RNA % Control,[1]; t = 72 h,10.6%
same,inhibition of JNK1 mRNA expression,"[1]; chemically modified derivatives of ISIS 12539, 400 nM (Table 5)",at least 88%
same,Protein % Control,[2]; t = 48 h,42.7%
same,Protein % Control,[2]; t = 72 h,25.7%
same,tumor growth compared to the saline control,[3],inhibited tumor growth
"15351 (antisense CTCTCTGTAGGCCCGCTTGG; sugars from the 5' end e11 d9, [5mC] at 1, 3, 5, linkages o10 s9 (s phosphorothioate, o phosphodiester), methylation of C not given here) [compound 15351]",Normalized % Control,[1]; dose 100 nM,45.1%
same,Normalized % Control,[1]; dose 400 nM,39.8%
same,RNA % Control,[1]; t = 48 h,26.9%
same,RNA % Inhibition,[1]; t = 48 h,73.1%
same,RNA % Control,[1]; t = 72 h,46.1%
same,RNA % Inhibition,[1]; t = 72 h,53.9%
same,Protein % Control,[2]; t = 48 h,52.4%
same,Protein % Control,[2]; t = 72 h,37.0%
"C[C@@H]1C[C@@H]([C@H](O)CC2CC(=O)NC(=O)C2)C(=O)[C@@H](C)C1 [cyclohexamide, reference compound]",effect on JNK2 oligonucleotide-induced cell death (apoptosis),[4],no effect
"COC(=O)C[C@H](NC(=O)[C@H](C)NC(=O)[C@@H](NC(=O)OCc1ccccc1)C(C)C)C(=O)CF [z-FAD.fmk, z-VAD.fmk, reference compound] (Cbz-Val-Ala-Asp(OMe)-CH2F)",effect on JNK2 oligonucleotide-induced cell death (apoptosis),[4],decreased
"CTTTCCGTTGGACCCCTGGG (phosphorothioate, 2'-MOE gapmer, further chemistry not given here) [ISIS 18076, scrambled control for ISIS 15346; 2′-methoxyethoxy gapmer, phosphorothioate throughout, reference compound]",percent hypodiploid cells (a measure of apoptosis),[4],8% and 10% and 11%
"C^ST^SC^ST^SC^ST^SG^ST^SA^SG^SG^SC^SC^SC^SG^SC^ST^ST^SG^SG (antisense CTCTCTGTAGGCCCGCTTGG; DNA, all phosphorothioate, methylation of C not given here) [ISIS 15346, JNK1 gapmer: P═S, 2′-MOE wings; P═S, 2′-deoxy core]",percent hypodiploid cells (a measure of apoptosis),"[4]; HUVEC, Oligo + Cyclohexamide",8%
same,percent hypodiploid cells (a measure of apoptosis),"[4]; HUVEC, Oligo + TNFa (10 ng/ml)",14%
same,percent hypodiploid cells (a measure of apoptosis),"[4]; HUVEC, Oligo + z-VAD.fmk",5%
same,percent hypodiploid cells (a measure of apoptosis),"[4]; HUVEC, Oligo alone",13%
"GTGCGCGCGAGCCCGAAATC (phosphorothioate, 2'-MOE gapmer, further chemistry not given here) [ISIS 18078, scrambled control for ISIS 15353; 2′-methoxyethoxy gapmer, phosphorothioate throughout, reference compound]",percent hypodiploid cells (a measure of apoptosis),[4],11% and 12% and 9%
